From US9901592B2 (priority 2008, dated 2018)
Values joined by “and” are separate entries in the source; they are usually repeats but may differ in a detail not shown here. Identical values can stand only once. Like-named read-outs stand apart in the source and are kept apart here.

Key:
Assay type in all cases: cell-based
M. fermentans = M. fermentans (15 isolates)
M. hominis = M. hominis (13 isolates)
S. pyogenes [1] = test: microbe, parasite or virus in culture; conditions: for MIC: Streptococcus pyogenes
S. pneumoniae = test: microbe, parasite or virus in culture; conditions: for MIC: Streptococcus pneumoniae
S. pyogenes [2] = tested on: S. pyogenes
M. catarrhalis = test: microbe, parasite or virus in culture; conditions: Moraxella catarrhalis

CCC[C@@H]1C[C@@H](C(=O)N[C@@H]([C@H]2O[C@H](SC)[C@H](O)[C@@H](O)[C@H]2O)[C@H](C)Cl)N(C)C1 [CLN, clindamycin]
<1.0 × 10^−10: single step mutation frequency (S. pyogenes [2]; strain 237 Macrolide-R [L4 mutation], 2 × MIC) | single step mutation frequency (S. pyogenes [2]; strain 237 Macrolide-R [L4 mutation], 4 × MIC) | single step mutation frequency (S. pyogenes [2]; strain 237 Macrolide-R [L4 mutation], 8 × MIC) | single step mutation frequency (S. pyogenes [2]; strain 2011 Macrolide-R [mef(A)], 2 × MIC) | single step mutation frequency (S. pyogenes [2]; strain 2011 Macrolide-R [mef(A)], 4 × MIC) | single step mutation frequency (S. pyogenes [2]; strain 2011 Macrolide-R [mef(A)], 8 × MIC)
0.03 µg/mL: Retest MIC after 10 Antibioticfree Subcultures (S. pyogenes [1]; strain 237 Macrolide-R [LA mutation], clone selected with CEM-101) | Retest MIC after 10 Antibioticfree Subcultures (S. pyogenes [1]; strain 2132 Macrolide-S, clone selected with AZI) | MIC (S. pneumoniae; read-out: Initial MIC, strain 2686 Macrolide-R [L4 mutation], parent) | MIC (S. pneumoniae; read-out: Initial MIC, strain 7127 Macrolide-S [S20N in L4, A105V in L22], parent) | MIC (S. pneumoniae; read-out: Selected Resistance MIC, strain 3665 Macrolide-R [mef(A)], after serial passages in the drug) | Retest MIC after 10 Antibiotic-free Subcultures (S. pneumoniae; strain 1077 Macrolide-S, clone selected with CEM-101) | Retest MIC after 10 Antibiotic-free Subcultures (S. pneumoniae; strain 1635 Macrolide-R [erm(A)], clone selected with AZI) | Retest MIC after 10 Antibiotic-free Subcultures (S. pneumoniae; strain 1635 Macrolide-R [erm(A)], clone selected with CEM-101) | Retest MIC after 10 Antibiotic-free Subcultures (S. pneumoniae; strain 2686 Macrolide-R [L4 mutation], clone selected with CEM-101) | Retest MIC after 10 Antibiotic-free Subcultures (S. pneumoniae; strain 2686 Macrolide-R [L4 mutation], clone selected with CLR) | Retest MIC after 10 Antibiotic-free Subcultures (S. pneumoniae; strain 2686 Macrolide-R [L4 mutation], clone selected with TEL) | Retest MIC after 10 Antibiotic-free Subcultures (S. pneumoniae; strain 3665 Macrolide-R [mef(A)], clone selected with CEM-101) | Retest MIC after 10 Antibiotic-free Subcultures (S. pneumoniae; strain 3665 Macrolide-R [mef(A)], clone selected with CLR) | Retest MIC after 10 Antibiotic-free Subcultures (S. pneumoniae; strain 3665 Macrolide-R [mef(A)], clone selected with TEL) | Retest MIC after 10 Antibiotic-free Subcultures (S. pneumoniae; strain 7127 Macrolide-S [S20N in L4, A105V in L22], clone selected with CEM-101) | Retest MIC after 10 Antibiotic-free Subcultures (S. pneumoniae; strain 7127 Macrolide-S [S20N in L4, A105V in L22], clone selected with TEL)
2/5: strains with resistant clones / strains tested (S. pneumoniae; S. pneumoniae)
0.016 µg/mL: MIC50 (M. fermentans; Mycoplasmopsis fermentans) | MIC90 (M. hominis; Metamycoplasma hominis, read-out: MIC90) | MIC (S. pneumoniae; read-out: Initial MIC, strain 1077 Macrolide-S, parent) | MIC (S. pneumoniae; read-out: Initial MIC, strain 3665 Macrolide-R [mef(A)], parent)
>64 µg/mL: Retest MIC after 10 Antibioticfree Subcultures (S. pyogenes [1]; strain 2094 Macrolide-R [erm(A)], clone selected with CLN) | Retest MIC after 10 Antibioticfree Subcultures (S. pyogenes [1]; strain 2094 Macrolide-R [erm(A)], clone selected with TEL) | Retest MIC after 10 Antibioticfree Subcultures (S. pyogenes [1]; strain 2368 Macrolide-R [erm(B)], clone selected with CEM-101) | Retest MIC after 10 Antibioticfree Subcultures (S. pyogenes [1]; strain 2368 Macrolide-R [erm(B)], clone selected with TEL) | Retest MIC after 10 Antibiotic-free Subcultures (S. pneumoniae; strain 24 Macrolide-R [erm(B)], clone selected with CEM-101) | Retest MIC after 10 Antibiotic-free Subcultures (S. pneumoniae; strain 24 Macrolide-R [erm(B)], clone selected with TEL) | Retest MIC after 10 Antibiotic-free Subcultures (S. pneumoniae; strain 1076 Macrolide-R [erm(B)&mef(A)], clone selected with CEM-101) | Retest MIC after 10 Antibiotic-free Subcultures (S. pneumoniae; strain 1076 Macrolide-R [erm(B)&mef(A)], clone selected with TEL) | Retest MIC after 10 Antibiotic-free Subcultures (S. pneumoniae; strain 1635 Macrolide-R [erm(A)], clone selected with CLN)
≤ 8 ng/mL: MIC50 (M. hominis; Metamycoplasma hominis, read-out: MIC50)
≦0.008-0.063 μg/mL: MIC Range (M. fermentans)
64 µg/mL: MIC (S. pneumoniae; read-out: Initial MIC, strain 1076 Macrolide-R [erm(B)&mef(A)], parent)
1.3 × 10^−7: single step mutation frequency (S. pyogenes [2]; strain 2094 Macrolide-R [erm(A)], 4 × MIC)
0.5 µg/mL: MIC (S. pyogenes [1]; read-out: Selected Resistance (MIC), strain 237 Macrolide-R [LA mutation], after serial passages in the drug)
4 µg/mL: MIC (S. pneumoniae; read-out: Selected Resistance MIC, strain 1077 Macrolide-S, after serial passages in the drug) | Retest MIC after 10 Antibiotic-free Subcultures (S. pneumoniae; strain 1077 Macrolide-S, clone selected with AZI)
2 µg/mL: MIC (S. pneumoniae; read-out: Selected Resistance MIC, strain 3009 Macrolide-R [23SrRNA mutation], after serial passages in the drug) | MIC90 (M. catarrhalis)
34 to 43 days: days until resistant clones (MIC increase) (S. pyogenes [1]; daily passages, max. 50)
0.06 µg/mL: MIC (S. pyogenes [1]; read-out: Initial MIC, strain 237 Macrolide-R [LA mutation], parent) | MIC (S. pyogenes [1]; read-out: Initial MIC, strain 2011 Macrolide-R [mef(A)], parent) | MIC (S. pyogenes [1]; read-out: Initial MIC, strain 2094 Macrolide-R [erm(A)], parent) | MIC (S. pyogenes [1]; read-out: Initial MIC, strain 2132 Macrolide-S, parent) | MIC (S. pyogenes [1]; read-out: MIC of parents of resistant clones, S. pyogenes) | MIC (S. pyogenes [1]; read-out: Parental MICs, S. pyogenes, 5 strains with varying resistotypes) | MIC (S. pyogenes [1]; read-out: Selected Resistance (MIC), strain 2011 Macrolide-R [mef(A)], after serial passages in the drug) | MIC (S. pyogenes [1]; read-out: Selected Resistance (MIC), strain 2132 Macrolide-S, after serial passages in the drug) | Retest MIC after 10 Antibioticfree Subcultures (S. pyogenes [1]; strain 2011 Macrolide-R [mef(A)], clone selected with AZI) | Retest MIC after 10 Antibioticfree Subcultures (S. pyogenes [1]; strain 2094 Macrolide-R [erm(A)], clone selected with AZI) | Retest MIC after 10 Antibioticfree Subcultures (S. pyogenes [1]; strain 2094 Macrolide-R [erm(A)], clone selected with CEM-101) | Retest MIC after 10 Antibioticfree Subcultures (S. pyogenes [1]; strain 2094 Macrolide-R [erm(A)], clone selected with CLR) | MIC (S. pneumoniae; read-out: Initial MIC, strain 1635 Macrolide-R [erm(A)], parent) | Retest MIC after 10 Antibiotic-free Subcultures (S. pneumoniae; strain 7127 Macrolide-S [S20N in L4, A105V in L22], clone selected with AZI)
2/3 and 2/4: strains with resistant clones / strains tested (S. pyogenes [1]; S. pyogenes)
8 µg/mL: Retest MIC after 10 Antibiotic-free Subcultures (S. pneumoniae; strain 1077 Macrolide-S, clone selected with CLN) | Retest MIC after 10 Antibiotic-free Subcultures (S. pneumoniae; strain 1077 Macrolide-S, clone selected with TEL)
<7.7 × 10^−11: single step mutation frequency (S. pyogenes [2]; strain 2132 Macrolide-S, 2 × MIC) | single step mutation frequency (S. pyogenes [2]; strain 2132 Macrolide-S, 4 × MIC) | single step mutation frequency (S. pyogenes [2]; strain 2132 Macrolide-S, 8 × MIC)
0.031 µg/mL: MIC90 (M. fermentans; Mycoplasmopsis fermentans)
0.25 µg/mL: Retest MIC after 10 Antibiotic-free Subcultures (S. pneumoniae; strain 1635 Macrolide-R [erm(A)], clone selected with CLR) | Retest MIC after 10 Antibiotic-free Subcultures (S. pneumoniae; strain 7127 Macrolide-S [S20N in L4, A105V in L22], clone selected with CLN)
> 64 µg/mL: MIC (S. pyogenes [1]; read-out: Initial MIC, strain 2368 Macrolide-R [erm(B)], parent) | MIC (S. pyogenes [1]; read-out: Selected Resistance (MIC), strain 2094 Macrolide-R [erm(A)], after serial passages in the drug) | MIC (S. pneumoniae; read-out: Initial MIC, strain 24 Macrolide-R [erm(B)], parent) | MIC (S. pneumoniae; read-out: Selected Resistance MIC, strain 1635 Macrolide-R [erm(A)], after serial passages in the drug)
1 µg/mL: Retest MIC after 10 Antibioticfree Subcultures (S. pyogenes [1]; strain 237 Macrolide-R [LA mutation], clone selected with CLN) | MIC (S. pneumoniae; read-out: Initial MIC, strain 3009 Macrolide-R [23SrRNA mutation], parent) | Retest MIC after 10 Antibiotic-free Subcultures (S. pneumoniae; strain 3009 Macrolide-R [23SrRNA mutation], clone selected with CEM-101) | Retest MIC after 10 Antibiotic-free Subcultures (S. pneumoniae; strain 3009 Macrolide-R [23SrRNA mutation], clone selected with CLR) | Retest MIC after 10 Antibiotic-free Subcultures (S. pneumoniae; strain 7127 Macrolide-S [S20N in L4, A105V in L22], clone selected with CLR)
1.1 × 10^−7: single step mutation frequency (S. pyogenes [2]; strain 2094 Macrolide-R [erm(A)], 8 × MIC)
0.125 µg/mL: MIC (S. pneumoniae; read-out: Selected Resistance MIC, strain 2686 Macrolide-R [L4 mutation], after serial passages in the drug)
0.03 to 0.06 µg/mL: MIC (S. pneumoniae; read-out: MIC of parents of resistant clones, S. pneumoniae (CEM-101: 7 strains))
≦0.008-0.031 μg/mL: MIC Range (M. hominis)
0.016 to 1 µg/mL: MIC (S. pneumoniae; read-out: Parental MICs, S. pneumoniae, 8 strains with varying resistotypes)
2.1 × 10^−7: single step mutation frequency (S. pyogenes [2]; strain 2094 Macrolide-R [erm(A)], 2 × MIC)
